Paper PMC10947113, “A Bivalent Activatable Fluorescent Probe for Screening and Intravital Imaging of Chemotherapy‐Induced Cancer Cell Death” (Angewandte Chemie (Weinheim an Der Bergstrasse, Germany), 2021)
Like-named read-outs stand apart in the source and are kept apart here.

B1: Annexin V‐AF647: a 36 kDa protein marker of PtdSer in the presence of Ca2+ ions (protein, UniProt P08758 2-320, looked up)
Annexin A5: AQVLRGTVTDFPGFDERADAETLRKAMKGLGTDEESILTLLTSRSNAQRQEISAAFKTLFGRDLLDDLKSELTGKFEKLIVALMKPSRLYDAYELKHALKGAGTNEKVLTEIIASRTPEELRAIKQVYEEEYGSSLEDDVVGDTSGYYQRMLVVLLQANRDPDAGIDEAQVEQDAQALFQAGELKWGTDEEKFITIFGTRSVSHLRKVFDKYMTISGFQIEETIDRETSGNLEQLLLAVVKSIRSIPAYLAETLYYAMKGAGTDDHTLIRVMVSRSEIDLFNIRKEFRKNFATSLYSMIKGDTSGDYKKALLLLCGEDD
modifications: Alexa Fluor 647 label
notes: a 36 kDa protein marker of PtdSer in the presence of Ca2+ ions

Key:
8 cancer cell lines = assay: Classification of drugs by Apotracker Red (apoptosis) and CellTrace Violet (proliferation) staining; type: cell-based; conditions: for effect on cell proliferation (CellTrace Violet): Figure S8
Procedure: (§1) To corroborate the versatility of Apotracker Red, we built a screening platform including a total of 8 cancer cell lines of variable origin and pathogenesis: breast (MCF7, MDA‐MB231 and MMTV‐PyMT (mouse mammary tumour virus‐polyoma middle tumour‐antigen)[23]), lung (A549), prostate (PC3 and LnCap), blood cells (Jurkat) and colon (HT29). All cell lines were cultured under standard conditions and seeded with the fluorescent proliferation marker CellTrace^TM Violet (CV) in 96‐well plates (10–20×10^3 cells/well) for high‐throughput flow cytometry. After drug treatment (i.e., drug addition plus 24 h incubation), Apotracker Red was incubated for 10 min and fluorescence readings were directly acquired without any additional processing steps (Figure 3 a). […] Using this platform, we tested a collection of FDA‐approved drugs in all cancer cell lines and compared their ability to induce apoptosis using Apotracker Red as the reporter. Specifically, we included DNA alkylation agents (e.g., cyclophosphamide, cisplatin, 5‐fluorouracil, gemcitabine, temozolomide), proteasomal and mitotic inhibitors (e.g., bortezomib, docetaxel, paclitaxel) and antagonists of specific proteins (e.g., dexamethasone, tamoxifen; Figure 3 b).
(§2) First, all drugs were tested in the 8 different cell lines to determine the percentages of Apotracker Red‐stained apoptotic cells compared to no treatment (Figure 3 c; Figure S8). […] All 5 drugs were tested at multiple concentrations (from 1 to 100 μM) and with incubation times up to 48 h to examine whether drugs could block cell proliferation at late stages (Figures S9–S13).
Figure S8. Heatmap of relative inhibition of cell proliferation (as indicated by staining of CellTraceTM Violet) after treatment of cancer cell lines with different drugs. Data presented as an average of 3 independent experiments. Cells were stained on day 0 with CellTraceTM Violet (1 µM) and mean fluorescence intensities were determined on the 5L LSR after 24 h of treatment with the different drugs. […]
Cell culture. MCF-7, A549, LnCap, MDA-MB-231, Jurkat T cells and PC3 cells were obtained from American Type Culture Collection (ATCC). HT29 cells were purchased from Merck (S i g m a Aldrich, UK). Mouse Mammary Tumour Virus –Polyoma Middle T antigen (MMTV -PyMT) cells were provided by the lab of Mikala Egeblad (CSHL, US). MMTV-PyMT, MCF-7, LnCap, MDA-MB-231 and Jurkat T cells were cultured in Roswell Park Memorial Institute (RPMI) 1640 Medium supplemented with 10% fetal bovine serum (FBS) , 100 U mL-1 penicillin and 0.1 mg mL-1 streptomycin. A549 and PC3 cells were cultured in Dublecco’s modified Eagle’s medium (DMEM) supplemented with 10% fetal bovine serum (FBS), 100 U mL-1 penicillin and 0.1 mg […]
Flow cytometry drug screen.

MDA-MB231 cells = assay: Apotracker Red flow cytometry drug screen, MDA-MB231; type: cell-based, human; conditions: 1 to 100 μM, 48 h, Apotracker Red 150 nM, 3 independent experiments
Procedure: as §1, with “cytometry.” for “cytometry. After drug treatment (i.e., drug addition plus 24 h incubation), Apotracker Red was incubated for 10 min and fluorescence readings were directly acquired without any additional processing steps (Figure 3 a).”
Edinburgh. Human peripheral blood neutrophils were isolated as previously described.[3] Briefly, whole blood was drawn into tubes containing anti -coagulant 3.6% sodium citrate (final concentration: 0.4% (w/v)) and centrifuged at 350 g for 20 min at r.t. with lowest acceleration and no brake. Platelet-rich plasma was rem oved, and leukocytes separated from erythrocytes by 0.6% dextran sedimentation in saline for 30 min at r.t. The upper layer was further fractionated using an isotonic discontinuous Percoll density gradient. Neutrophils were harvested from the 63% and 72.9% interface and cultured in Iscove’s Modified Dulbecco’s Medium (IMDM, Gibco) in 5% h um an A B se rum fo r 1 8 h at 37°C, 5% CO2 to in du ce spontaneous […]
Cell culture. MCF-7, A549, LnCap, MDA-MB-231, Jurkat T cells and PC3 cells were obtained from American Type Culture Collection (ATCC). HT29 cells were purchased from Merck (S i g m a Aldrich, UK). Mouse Mammary Tumour Virus –Polyoma Middle T antigen (MMTV -PyMT) cells were provided by the lab of Mikala Egeblad (CSHL, US). […]

[1] = tested on: breast cancer cells (MMTV-PyMT, MDA-MB231, MCF7); assay: Dose-dependency study in breast cancer cell lines; type: cell-based, mouse and human; conditions: 1 to 100 μM, 48 h, Apotracker Red 150 nM, 3 independent experiments
Procedure: as §2, with “S8). […] From this screen, we decided to select 5 drugs with potent pro‐apoptotic response in breast cancer, the most diagnosed cancer worldwide.[25] […] From group 2, we selected cyclophosphamide, tamoxifen, and 5‐fluorouracil as pro‐apoptotic molecules.” for “S8).”
Figure 4 Apotracker Red detects dose‐dependent chemotherapeutic‐induced apoptosis in mouse and human breast cancer cell lines. Cells were plated with 1 μM CV, treated with increasing concentrations (0, 1, 3, 10, 30 and 100 μM) of selected drugs for 48 h, and stained with Apotracker Red (150 nM) before data acquisition. Drugs: tamoxifen (beige), cisplatin (black), 5‐fluorouracil (green), gemcitabine (pink) and cyclophosphamide (red). Data presented as mean±SEM of 3 independent experiments.
Edinburgh. Human peripheral blood neutrophils were isolated as previously described.[3] Briefly, whole blood was drawn into tubes containing anti -coagulant 3.6% sodium citrate (final concentration: 0.4% (w/v)) and centrifuged at 350 g for 20 min at r.t. with lowest acceleration and no brake. Platelet-rich plasma was rem oved, and leukocytes separated from erythrocytes by 0.6% dextran sedimentation in saline for 30 min at r.t. […]
were centrifuged (300 g, 5 min, r.t.), washed once with PBS before addition of 0.05% Trypsin, 0.02% ethylenediaminetetraacetic acid (EDTA) in Hank’s balanced salt solution (HBSS) and incubation at 37°C for 5 min. […] Histograms and mean fluorescence intensities of apoptotic cells were measured on a 5L LSR flow cytometer under the following excitation/emission filters: Apotracker Red (561/610 nm), Annexin V-AF647 (647 /670 nm).
Data were acquired using the FACS Diva software and analysed using the FlowJo X software. […]

[2] = tested on: apoptotic cells (primary human neutrophils, Jurkat T cells); assay: Divalent cation-independent staining, flow cytometry with EDTA; type: cell-based; conditions: 2.5 mM EDTA, Apotracker Red 150 nM, Annexin V-AF647 25 nM
[3] = 8 cancer cell lines, 24 h treatment, flow cytometry

Row | Molecule | drug group by Apotracker Red (apoptosis) and CV (proliferation) staining (8 cancer cell lines; [3]) | Apotracker Red staining in MDA-MB-231 cells, dose-dependency study (MDA-MB231 cells) | also measured
1 | CC(=O)O[C@@]12CO[C@@H]1C[C@H](O)[C@@]1(C)C(=O)[C@H](O)C3=C(C)[C@@H](OC(=O)[C@H](O)[C@@H](NC(=O)OC(C)(C)C)c4ccccc4)C[C@@](O)([C@@H](OC(=O)c4ccccc4)[C@H]21)C3(C)C [docetaxel] | inhibited cell proliferation but showed little or no induction of apoptosis | – | –
2 | Cn1nnc2c(C(N)=O)ncn2c1=O [temozolomide] | inhibited cell proliferation but showed little or no induction of apoptosis | – | –
3 | CC(C)C[C@H](NC(=O)[C@H](Cc1ccccc1)NC(=O)c1cnccn1)B(O)O [bortezomib] | induced apoptosis with little reduction of cell proliferation | – | effect on cell proliferation (CellTrace Violet) (8 cancer cell lines; 24 h treatment): very minor effects on cell proliferation
4 | Nc1ccn([C@@H]2O[C@H](CO)[C@@H](O)C2(F)F)c(=O)n1 [gemcitabine] | induced apoptosis and decreased cell proliferation | weaker Apotracker Red‐staining | –
5 | O=c1[nH]cc(F)c(=O)[nH]1 [5-fluorouracil] | induced apoptosis with little reduction of cell proliferation | weaker Apotracker Red‐staining | –
6 | CC/C(=C(\c1ccccc1)c1ccc(OCCN(C)C)cc1)c1ccccc1 [tamoxifen] | induced apoptosis with little reduction of cell proliferation | – | percentages of Apotracker Red staining across all breast cancer cells, dose-dependency study [1]: highest percentages of Apotracker Red staining
7 | O=P1(N(CCCl)CCCl)NCCCO1 (stereo not shown) [cyclophosphamide] | – | weaker Apotracker Red‐staining | drug group by Apotracker Red (apoptosis) and CV (proliferation) staining (8 cancer cell lines): induced apoptosis with little reduction of cell proliferation
8 | C[C@@H]1C[C@H]2[C@@H]3CCC4=CC(=O)C=C[C@]4(C)[C@@]3(F)[C@@H](O)C[C@]2(C)[C@@]1(O)C(=O)CO [dexamethasone] | had no impact on proliferation or apoptosis | – | –
9 | CC(=O)O[C@H]1C(=O)[C@@]2(C)[C@H]([C@H](OC(=O)c3ccccc3)[C@]3(O)C[C@H](OC(=O)[C@H](O)[C@@H](NC(=O)c4ccccc4)c4ccccc4)C(C)=C1C3(C)C)[C@]1(OC(C)=O)CO[C@@H]1C[C@@H]2O [paclitaxel] | induced apoptosis with little reduction of cell proliferation | – | effect on cell proliferation (CellTrace Violet) (8 cancer cell lines; 24 h treatment): very minor effects on cell proliferation
10 | B1 | – | – | staining of apoptotic cells after chelation of divalent cations [2]: failed to bind
